Experimental data: US9228097B2, “Phase change inks” (Xerox Corporation, priority 2013, dated 2016)

Key:
[1] = Solubility testing in polyethylene wax (POLYWAX 655); assay type: physicochemical; details: 1 g Solvent Black 3 or 2 g distearyl derivative in 50 g POLYWAX 655, 120° C. oil bath, stirred 3 h, then 1 h without stirring
Procedure: [drawing 41] molecular weight 892, were compared for solubility in polyethylene wax, a predominant component in phase change inks. 1 g of the Solvent Black 3 and 2 g of the distearyl derivative (because its molecular weight was about twice that of Solvent Black 3) were each dissolved in 50 g portions of POLYWAX 655 (Baker Petrolite) in 100 mL beakers equipped with magnetic stir bars. The solutions were placed in 120° C. oil baths and allowed to stir for 3 h, followed by cessation of stirring for 1 h, after which the solutions were poured into aluminum tins.

[2] = K-proofer print of the wax compositions on paper (darkness of the images as a sign of dissolved dye); assay type: physicochemical; details: polyethylene wax compositions of the solubility test applied to paper with RK Print-Coat K-proofer

darkness (optical density) of images versus composition containing Solvent Black 3 [2] | SMILES | solubility in polyethylene wax (solids on bottom of beaker) [1]
 | CC1(C)Nc2cccc3c(/N=N/c4ccc(/N=N/c5ccccc5)c5ccccc45)ccc(c23)N1 [Solvent Black 3, reference compound] | a substantial amount of the Solvent Black 3 appeared on the bottom of its beaker
considerably darker | CCCCCCCCCCCCCCCCCC1(CCCCCCCCCCCCCCCCC)Nc2cccc3c(/N=N/c4ccc(/N=N/c5ccccc5)c5ccccc45)ccc(c23)N1 [distearyl derivative] | almost no solids appeared on the bottom of the beaker
